Reference: patent EP0074929A1, “Polycyclic polyazaheterocycles, process for their preparation and pharmaceutical preparations containing them” (CIBA-GEIGY AG, priority 1981, dated 1983)
Structures can show the parent of a compound that is named as a salt. Where two headings read alike, the source gives them in different places.

Assays:
[1] = tested on: isolierten Meerschweinchenvorhof; settings: known antidepressants, stated as contrast; cited from earlier work
[2] = tested on: durch Tetrabenazin induzierten Ptosis; assay: Antagonism of tetrabenazine-induced ptosis in the rat (Rubin et al.); type: in vivo, Ratte
Method: (§1) Die Verbindungen der allgemeinen Formel I und ihre Säureadditionssalze besitzen wertvolle psychopharmakologische Eigenschaften. Insbesondere wirken sie antagonistisch gegenüber der durch Reserpin induzierten Hypothermie, z.B. bei intraperitonealer oder peroraler Applikation an der Ratte, [vgl. Benz und Waser, Arzneimittelforsch. 21 (5) 654 (1971)] im Dosenbereich von 10 bis 100 mg/kg, und gegenüber der durch Tetrabenazin induzierten Ptosis bei intraperitonealer oder peroraler Applikation an der Ratte [vgl. Rubin et al., J. Pharmacol. exptl. Ther. 120, 125 (1957)] im Dosenbereich von 3 bis 100 mg/kg. Beispielsweise beträgt die ED50 von 4,5-Dihydro-2-[(dimethylamino)-methyl]-5-phenyl-1,2,4-triazolo[1,5-a]chinoxalin-hydrochlorid im zweitgenannten Test 3-10 mg/kg per os und 10 mg/kg i.p.. Im Sozialkonflikt-Test an der Ratte zeigen die Verbindungen der allgemeinen Formel I, wie die vorgenannte, anxiolytische Wirkung nach peroraler Verabreichung von Dosen ab 1 mg/kg. […] Die Toxizität der Verbindungen der allgemeinen Formel I ist im Vergleich zu den erwünschten pharmakologischen Wirkungen niedrig. Diese Eigenschaften kennzeichnen die Verbindungen der allgemeinen Formel I als Antidepressiva und Anxiolytica, die zur Behandlung von Depressionen Verwendung finden können.

[3] = tested on: isolierten Meerschweinchenvorhof; assay: Isolated guinea pig atrium, inotropic and chronotropic effect; design: species or system Meerschweinchen
Sozialkonflikt-Test = assay: Social conflict test in the rat; type: in vivo, Ratte; settings: po, peroral, lowest dose with anxiolytic effect, read-out: anxiolytische Wirkung nach peroraler Verabreichung von Dosen ab
Method: as §1

Structure (SMILES) | chronotrope Wirkung [1] | inotrope Wirkung [1] | ED50 ([2]; ip) [mg/kg] | ED50 ([2]; po, per os) [mg/kg] | chronotrope Wirkung [3] | inotrope Wirkung [3] | minimal effective dose (Sozialkonflikt-Test) [mg/kg]
CN(C)CCCN1c2ccccc2CCc2ccccc21 [Imipramin] | positiv chronotropen | eher negativ inotropen | – | – | – | – | –
CN(C)Cc1nc2n(n1)-c1ccccc1N(c1ccccc1)C2 [4,5-Dihydro-2-[(dimethylamino)-methyl]-5-phenyl-1,2,4-triazolo[1,5-a]chinoxalin-hydrochlorid] | – | – | 10 | 3 to 10 | schwach negativ chronotrope | schwach positiv inotrope | ≥ 1
